The nature of data set [1]: Stability assay of compound A during the preparation of the injection (HPLC peak area). In kind it is physicochemical. Conditions: for peak area: 210 nm. Here is the method:
Experimental conditions: the chromatography column was DIKMA C18 column (5μ, 250×4.6 mm); the detector was Agilent 1100 DAD detector; the detection wavelength was 210 nm; the liquid phase was acetonitrile-0.02M KH2PO4 (which contains 1‰ of tetrabutylammonium hydroxide, and the pH was adjusted to 7.35 with triethylamine) (35:65); the flow speed was 1 ml/min; and sample amount was 20 μl.
Sample: the solutions in each step of the preparation of the injection of compound A in example 6
Experimental data: the peak area of the solution before filtering with micro-pore filter film was 1084.4, the peak area after filtering was 1078.2, and the peak area after the moist heat sterilization was 1072.9.

The subject of data set [2] is human prostate cancer cell PC-3 transplanted into nude mice. Description: Therapeutic activity against human prostate cancer cell PC-3 transplanted into nude mice. In kind it is in vivo, BALB/Ca nude mice. Conditions: for TV d24 / T/C (%) / RTV / TV d0: dl/3.5 w, i.p; for TV d24: 24th day; for T/C (%): relative tumor proliferation rate; for RTV: relative tumor volume Vt/V0; for TV d0: tumor volume at start of administration. Here is the method:
The therapeutic activity experiment of compound A against human prostate cancer cell PC-3 transplanted into nude mice was conducted by SHANGHAI INSTITUTE OF MATERIA MEDICA, CHINESE ACADEMY OF SCIENCES, under assignment by SHANGHAI HUATUO MEDICAL SCIENCE CO., LTD.
Tested Compound: Compound A.
Positive control medicine: mitomycin (MMC), produced by Kyowa Hakko kogyo Co Ltd. (batch no: 468AEF, 2 mg/bottle), was diluted with physiological saline when used.
Animal and transplanted tumor: BALB/Ca nude mice, female, 45˜50 days old, weight 20±1 g. The transplanted tumor of human prostate cancer cell PC-3 in nude mice was established by inoculating the nude mice with PC-3 cell line subcutaneously.
TV (mm^3) is the tumor volume, and the calculation equation is: TV=½×a×b^2, wherein a and b represent length and width respectively. d0 is the tumor volume measured as medicine is administered in divided cages, and d24 is the tumor volume on the 24th day of the experiment. RTV is the relative tumor volume, and the calculation equation is RTV=Vt/V0, wherein V0 is the tumor volume measured as medicine is administered in divided cages (i.e. d0), Vt is the tumor volume measured every time. The evaluation index of the antitumor activity is the relative tumor proliferation rate T/C (%) and the calculation equation is as follows: T/C(%)=(TRTV/CRTV)×100
TRTV: RTV of the therapeutic group; CRTV: RTV of the negative control group.
Evaluation standard of therapeutic effect: T/C (%)>60% is ineffective, T/C (%)≦60 and with a statistic result of p<0.05 represents effective.

The nature of data set [3]: Stability assay of compound A at meta-acidic or meta-alkalescence condition (HPLC peak area). In kind it is physicochemical. To be noted: 2 hours. Here is the method:
Experimental conditions: the chromatography column was DIKMA C18 column (5μ, 250×4.6 mm); The detector was Waters 3487 detector; the detection wavelength was 210 nm; the liquid phase was acetonitrile-0.02M KH2PO4 (which contains 1‰ tetrabutylammonium hydroxide, and the pH was adjusted to 7.35 with triethylamine) (35:65); and the flow speed was 1 ml/min.
Experimental method: the compound A was formulated into a solution of about 5 mg/ml with distilled water. 0.1 ml of the solution was added into the following solutions respectively: a) 1 ml of HCl diluted solution with a pH of 2; b) 1 ml of distilled water; c) 1 ml of sodium carbonate diluted solution with a pH of 10. After left standing at room temperature for 2 hours, 0.1 ml of each the above three kinds of solution were added into 1 ml of liquid phase solution, respectively, and 20 μl was sampled and injected into the chromatograph. The peak areas were then determined and calculated.

Turning to `Cc1c(O)c(O)cc2c1C(S(=O)(=O)[O-])C=C1[C@@]2(C)CC[C@@]2(C)[C@@H]3C[C@](C)(C(=O)O)CC[C@]3(C)CC[C@]12C.[Na+]` (some centres unmarked) [Compound A], the “stability during the injection preparation” value in data set [1] was “good”. Also, the peak area in data set [1] (after filtering) is recorded as 1078.2; in data set [1] (after the moist heat sterilization (116° C., 30 min)) it was 1072.9; in data set [1] (solution before filtering with micro-pore filter film), 1084.4; in data set [3] (Distilled water, room temperature), 1206926; in data set [3] (pH = 2 (HCl diluted solution), room temperature), 1247385; in data set [3] (pH = 10 (sodium carbonate diluted solution), room temperature) it was 1232216. The “TV d24” value in data set [2] (3 mg/kg) is 501 ± 133 mm^3. Further, in data set [2] (3 mg/kg), the “T/C (%)” value stood at 40.2%. In data set [2] (3 mg/kg), this molecule yielded an RTV of 3.8 ± 1.1. In addition, in data set [2] (3 mg/kg), the “TV d0” value was 135 ± 16 mm^3. In data set [2] (mouse, in vivo), the “inhibition of the growth of human prostate cancer cell PC-3 transplanted into nude mice” value is recorded as “marked inhibition effects”. In addition, the “Percentage (based on the peak area in distilled water taken as 100%)” value in data set [3] (Distilled water (reference), room temperature) was 100%; in data set [3] (pH = 2, room temperature), 103.4%; in data set [3] (pH = 10, room temperature) it was 102.1%. Further, the “stability at both meta-acidic condition and meta-alkalescence condition” value in data set [3] (pH 2 and pH 10, room temperature) was “good stability”.
For the molecule `CO[C@@]12[C@H](COC(N)=O)C3=C(C(=O)C(C)=C(N)C3=O)N1C[C@@H]1N[C@@H]12` [mitomycin, reference compound], in data set [2] (5 mg/kg), the “TV d24” value came to 400 ± 224 mm^3, the “T/C (%)” value turned out to be 33.7%, the RTV came to 3.1 ± 1.8 and the “TV d0” value was determined as 135 ± 42 mm^3.

For the origin of these results see patent publication US8299125B2, “Water-soluble triterpenephenol compounds having antitumor activity and the preparation thereof” (Shanghai Huatuo Medical Science Co., Ltd., priority 2007, dated 2012).
